{"source": "patent US20220023291A1", "about": "“COMPOSITIONS AND METHODS FOR REGULATING INFLAMMATION” (University of Virginia Patent Foundation, priority 2018, published 2022)", "key": {"[1]": {"test_system": "BMDM", "test": "IL-6 ELISA on supernatant of LPS-stimulated BMDM", "assay_type": "cell-based, mouse", "settings": "1 μg/mL LPS, 6 hours; 20 μM JSH-23, 20 μM PD98059, 1 μM SP600125, 5 μM 4μ8C", "method": "(§1) Tissue culture conditions and Reagents. HEK293 cells, primary lung fibroblasts and BMDM were isolated and maintained as described (41-43). Cells were treated with LPS (Sigma, L4391), 4μ8C (Tocris, 4479), tunicamycin (Tocris, 3516), PD98059 (Medchem Express HY-12028), JSH-23 (Medchem Express, Hy-13982), SP600125 (Medchem Express, HY-12041), cycloheximide (Tocris, 0970), lactacystin (Cayman Chemical, 70980), chloroquine (Fisher, ICN19391925), and STF 083010 (Medchem Express, HY-15845) as described in the text.\n(§2) ELISA. ELISA for IL-6 and TNFα were performed as previously described (Remick et al., 2002). Antibodies used were: anti-mouse IL-6 MP5-20F3 (Biolegend, 504501) 0.5 μg/mL; biotin anti-mouse IL-6 MP5-32C11 (Biolegend, 504601) 1 μg/mL; anti-mouse TNFα (R&D systems, AF-410-NA) 0.5 μg/mL; biotin anti-mouse TNFα (R&D systems, BAF410) 0.25 μg/mL.\nTissue culture conditions and Reagents. HEK293 mTLR4/MD2/CD14 (Invivogen, 293-mtlr4md2cd14), primary lung fibroblasts, and BMDM were isolated and maintained as described (Zhang et al., 2008; Seluanov et al., 2010). Cells and animals were treated with LPS (Sigma, L4391), 4μ8C (Tocris, 4479), APY-29 (Medchem Express HY-17537), PD98059 (Medchem Express HY-12028), JSH-23 (Medchem Express, HY-13982), SP600125 (Medchem Express, HY-12041), STF 083010 (Medchem Express, HY-15845), Fluvoxamine (Medchem Express, HY-B0103A), and Ceftriaxone (Hospira, NDC: 0409-7337-01), as described in the text.\nas §2, with “TNF-α” for “TNFα”"}, "[2]": {"target": "T1, IRE1 endonuclease activity (Mus musculus, UniProt Q9EQY0)", "T1 construct": "We prepared bone marrow derived macrophages (BMDM) from WT and S1R KO mice; endogenous in cells; host or cells: primary mouse bone marrow derived macrophages (WT and S1R KO, C57BL/6J background)", "T1 sequence (Q9EQY0 21-977)": "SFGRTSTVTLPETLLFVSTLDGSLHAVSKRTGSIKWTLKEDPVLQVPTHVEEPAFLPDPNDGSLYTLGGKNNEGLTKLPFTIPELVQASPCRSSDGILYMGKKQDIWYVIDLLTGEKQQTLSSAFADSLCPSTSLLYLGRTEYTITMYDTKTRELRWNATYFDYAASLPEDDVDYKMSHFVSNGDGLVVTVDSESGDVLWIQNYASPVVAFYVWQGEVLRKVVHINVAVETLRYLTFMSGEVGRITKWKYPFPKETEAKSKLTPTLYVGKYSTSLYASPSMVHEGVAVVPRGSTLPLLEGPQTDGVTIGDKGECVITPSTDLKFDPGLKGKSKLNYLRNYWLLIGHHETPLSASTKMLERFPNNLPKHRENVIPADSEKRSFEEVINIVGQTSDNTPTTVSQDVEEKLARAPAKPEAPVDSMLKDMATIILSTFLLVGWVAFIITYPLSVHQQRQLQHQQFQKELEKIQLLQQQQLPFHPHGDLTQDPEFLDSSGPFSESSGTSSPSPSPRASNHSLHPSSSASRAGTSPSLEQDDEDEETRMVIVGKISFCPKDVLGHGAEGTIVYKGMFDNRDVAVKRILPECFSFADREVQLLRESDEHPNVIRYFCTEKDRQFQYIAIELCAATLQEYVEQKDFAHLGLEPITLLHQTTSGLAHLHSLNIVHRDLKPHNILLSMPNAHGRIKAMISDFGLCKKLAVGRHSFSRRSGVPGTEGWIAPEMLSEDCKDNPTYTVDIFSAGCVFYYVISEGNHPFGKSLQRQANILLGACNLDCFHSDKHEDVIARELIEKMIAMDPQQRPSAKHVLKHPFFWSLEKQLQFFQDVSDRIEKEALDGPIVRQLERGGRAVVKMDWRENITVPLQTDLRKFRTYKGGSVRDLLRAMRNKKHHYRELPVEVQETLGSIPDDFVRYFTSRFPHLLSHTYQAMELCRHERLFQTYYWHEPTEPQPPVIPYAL", "test": "XBP1 splicing ratio by qPCR in BMDM", "assay_type": "cell-based", "settings": "WT and S1R KO BMDM, 100 ng/mL LPS + 5 μM 4μ8C, 6 hours", "method": "as §1\n(§3) cDNA synthesis and quantitative RT-PCR. Total RNA was extracted using an ISOLATE II RNA (Bioline, 52073) and cDNA synthesis was performed with the ISCRIPT™ kit (Bio-Rad, 170-8891). TaqMan Probes were obtained from Life Technologies (GAPDH: Mm99999915_g1; IL-6: Mm00446190_m1; pro-IL-1β: Mm00434228_m1; TNFα: Mm00443258_m1). Primers for IRE1 detection were GCACGUGAAUUGAUAGAGA (SEQ ID NO: 10) and UCUCUAUCAAUUCACGUGC (SEQ ID NO: 11). Primers for the detection of XBP1 were previously published (Lipson et al., 2008). RT-PCR was performed as described previously (Gaultier et al., 2009).\n(§4) cDNA synthesis and quantitative PCR. Total RNA was extracted using an ISOLATE II RNA kit (Bioline, 52073) and cDNA synthesis was performed with the SENSIFAST™ cDNA synthesis kit (Bioline, BIO-65054). TaqMan Probes were obtained from Thermo Fisher (GAPDH: Mm99999915_g1; IL-6: Mm00446190_m1; pro-IL-1β: Mm00434228_m1; IL10: Mm004396). Primers for the detection of XBP1, IL-8, and actin were previously published (Vandesompele et al., 2002; Kumar & Valdivia, 2008; Girard et al., 2009). qPCR was performed as described previously (Gaultier et al., 2008)."}, "[3]": {"test_system": "IRE1 transcript", "test": "qPCR for IRE1 expression in BMDM", "assay_type": "cell-based, mouse", "settings": "S1R KO BMDM, 5 μM 4μ8C", "method": "as §3"}, "[4]": {"test_system": "BMDM", "test": "qPCR for pro-inflammatory cytokine expression in LPS-treated BMDM", "assay_type": "cell-based, mouse", "settings": "100 ng/mL LPS + 5 μM 4μ8C, 6 hours", "method": "as §3, §4"}, "[5]": {"test_system": "primary lung fibroblasts", "test": "IL-6 ELISA on supernatant of LPS-stimulated primary lung fibroblasts", "assay_type": "cell-based, mouse", "settings": "1 μg/mL LPS + 5 μM 4μ8C, 6 hours", "method": "as §1, §2\nTissue culture conditions and Reagents. HEK293 mTLR4/MD2/CD14 (Invivogen, 293-mtlr4md2cd14), primary lung fibroblasts, and BMDM were isolated and maintained as described (Zhang et al., 2008; Seluanov et al., 2010). […]"}, "[6]": {"settings": "cited from earlier work"}, "[7]": {"settings": "pre-clinical tests; cited from earlier work"}, "[8]": {"test_system": "transgenic (3×Tg-AD) mice", "settings": "cited from earlier work"}}, "note": "“Also recorded” adds a separate entry of the source."}
{"smiles": "Cc1cc(=O)oc2c(C=O)c(O)ccc12", "note": "[4μ8C, 7-Hydroxy-4-methyl-2-oxo-2H-1-benzopyran-8-carboxaldehyde]", "values": [{"measurement": "Difference in LPS-induced IL-6 secretion between WT and S1R KO BMDM", "setting": "[1]", "result": "rescued IL-6 secretion in S1R KO cells to the levels observed in control BMDM"}, {"measurement": "LPS induced XBP1 splicing", "setting": "[2]", "result": "completely abolished"}, {"measurement": "IRE1 transcript levels", "setting": "[3]", "result": "restores IRE1 transcript levels to those observed in WT BMDM"}, {"measurement": "Potentiated cytokine expression in S1R KO BMDM relative to WT (qPCR)", "setting": "[4]", "result": "inhibits potentiation of cytokine expression in S1R KO BMDM; also recorded: reversed IL-6 expression in KO cells to the amount observed in WT BMDM"}, {"measurement": "IL-1β expression (qPCR)", "setting": "[4]; WT and S1R KO BMDM", "result": "decreases"}, {"measurement": "IL-6 expression (qPCR)", "setting": "[4]; WT and S1R KO BMDM", "result": "decreases"}, {"measurement": "IL-6 / cytokine secretion by lung fibroblasts upon LPS stimulation", "setting": "[5]", "result": "marked decrease of cytokine secretion"}, {"measurement": "Half-life in vivo", "setting": "[6]", "result": "short half-life"}]}
{"smiles": "CN(C)CC1COC(c2ccccc2)(c2ccccc2)C1.Cl", "note": "(stereo not shown) [ANAVEX® 1-41, tetrahydro-N,N-dimethyl-5,5-di phenyl-3-furanmethanamine hydrochloride]", "values": [{"measurement": "Neuroprotective benefits", "setting": "[7]", "result": "significant neuroprotective benefits"}]}
{"smiles": "CC1SC2(CCN(C)CC2)CN1C(=O)CCc1c[nH]c2ccccc12", "note": "(stereo not shown) [ANAVEX® 3-71, 1-(2,8-dimethyl-1-thia-3,8-diazaspiro(4.5)dec-3-yl)-3-(1H-indol-3-yl)propan-1-one]", "values": [{"measurement": "Effect on major Alzheimer's hallmarks (cognitive deficits, amyloid and tau pathologies)", "setting": "[8]", "result": "highly effective in very small doses"}]}
